In patent US20200017495A1, “NOVEL HETEROCYCLIC COMPOUNDS AND THEIR USE IN PREVENTING OR TREATING BACTERIAL INFECTIONS” (priority 2017, published 2020):
Like-named read-outs stand apart in the source and are kept apart here.

Key:
Type in all cases: cell-based
[1] = system: Enterobacter aerogenes (EAE) isolates; assay: MIC of compounds alone and combined with antibacterials, broth microdilution (CLSI); details: Klebsiella aerogenes, alone, read-out: MIC
Summary of the method: (§1)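 Log-phase isolates were inoculated at a final 5.10^5 CFU/mL in cation-adjusted Mueller-Hinton broth and incubated 16-20 h at 35° C in ambient air. MIC was the lowest concentration preventing visible growth; for combinations, the antibacterial MIC was read at each compound concentration.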

[2] = system: Citrobacter freundii (CFR) isolates; assay: as above; details: Citrobacter freundii
Summary of the method: as §1

[3] = system: Klebsiella oxytoca (KOX) isolates; assay: as above; details: Klebsiella oxytoca, alone, read-out: MIC
Summary of the method: as §1

[4] = system: Morganella morganii (MMO) isolates; assay: as above; details: Morganella morganii, read-out: MIC
Summary of the method: as §1

[5] = system: Salmonella typhimurium (STY) isolates; assay: as above; details: Salmonella enterica, TYPHIMURIUM; STY S3371; alone; read-out: MIC
Summary of the method: (§2)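 Visual read-out: MIC is the lowest concentration stopping growth, and in combinations the lowest antibacterial concentration doing so at each fixed compound level. Inoculum 5.10^5 CFU/mL log-phase cells in ca-MHB, 35° C, 16-20 h, ambient air.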

[6] = system: Providencia stuartii (PST) isolates; assay: as above; details: Providencia stuartii, read-out: MIC
Summary of the method: as §2

[7] = system: Proteus mirabilis (PMI) isolates; assay: microbe, parasite or virus in culture; details: Proteus mirabilis, read-out: MIC
Summary of the method: as §1

[8] = strain CFR UFR251, compound alone, read-out: MIC
[9] = strain MMO UFR145, compound alone
[10] = strain PST UFR98, compound alone
[11] = strain PMI UFR132, compound alone

O=C1N2CC(n3cccn3)=CC(C2)N1OC(F)(F)C(=O)[O-].[Li+] (centres unmarked) [AF3]
MIC ([1]; EAE 49469): 8 µg/mL | MIC ([1]; EAE 200261): 8 µg/mL | MIC ([1]; EAE UFR199): 16 µg/mL | MIC ([1]; EAE UFR201): 8 µg/mL | MIC ([1]; EAE UFR202): 32 µg/mL | MIC ([1]; EAE UFR207): 8 µg/mL | MIC ([1]; EAE UFR213): 16 µg/mL | MIC ([2]; CFR UFR10, alone, read-out: MIC): 16 µg/mL | MIC ([2]; CFR UFR11, alone, read-out: MIC): > 32 µg/mL | MIC ([2]; CFR UFR37, alone, read-out: MIC): 8 µg/mL | MIC ([2]; CFR UFR83, alone, read-out: MIC): > 32 µg/mL | MIC ([2]; CFR UFR146, alone, read-out: MIC): 32 µg/mL | MIC ([2]; CFR UFR248, alone, read-out: MIC): 8 µg/mL | MIC ([2]; CFR UFR249, alone, read-out: MIC): 8 µg/mL | MIC ([2]; CFR UFR250, alone, read-out: MIC): 16 µg/mL | MIC ([2]; strain CFR UFR147, compound alone, read-out: MIC): 4 µg/mL | MIC ([2]; strain CFR UFR148, compound alone, read-out: MIC): 16 µg/mL | MIC [2, 8]: 8 µg/mL | MIC ([2]; strain CFR UFR252, compound alone, read-out: MIC): 32 µg/mL | MIC ([2]; strain CFR UFR253, compound alone, read-out: MIC): 32 µg/mL | MIC ([2]; strain CFR UFR254, compound alone, read-out: MIC): 32 µg/mL | MIC ([3]; KOX UFR21): > 32 µg/mL | MIC ([3]; KOX UFR173): 16 µg/mL | MIC ([3]; KOX UFR223): 8 µg/mL | MIC ([3]; KOX UFR224): 8 µg/mL | MIC ([4]; MMO 200321, alone): 32 µg/mL | MIC ([4]; MMO UFR144, alone): 32 µg/mL | MIC ([4]; MMO UFR240, alone): > 32 µg/mL | MIC ([4]; MMO UFR241, alone): 32 µg/mL | MIC ([4]; MMO UFR242, alone): 32 µg/mL | MIC ([4]; MMO UFR243, alone): > 32 µg/mL | MIC ([4]; MMO UFR244, alone): > 32 µg/mL | MIC ([4]; MMO UFR245, alone): 32 µg/mL | MIC ([4]; MMO UFR246, alone): 32 µg/mL | MIC ([4]; MMO UFR247, alone): 16 µg/mL | MIC [4, 9]: > 32 µg/mL | MIC [5]: 8 µg/mL | MIC ([6]; PST UFR94, alone): 16 µg/mL | MIC ([6]; PST UFR95, alone): > 32 µg/mL | MIC ([6]; PST UFR120, alone): 8 µg/mL | MIC ([6]; PST UFR121, alone): 8 µg/mL | MIC ([6]; PST UFR122, alone): 4 µg/mL | MIC ([6]; PST UFR123, alone): 4 µg/mL | MIC ([6]; PST UFR124, alone): 8 µg/mL | MIC ([6]; PST UFR125, alone): 4 µg/mL | MIC ([6]; PST UFR235, alone): 16 µg/mL | MIC [6, 10]: 16 µg/mL | MIC ([7]; PMI UFR82, alone): 4 µg/mL | MIC ([7]; PMI UFR126, alone): 4 µg/mL | MIC ([7]; PMI UFR127, alone): 8 µg/mL | MIC ([7]; PMI UFR128, alone): 4 µg/mL | MIC ([7]; PMI UFR129, alone): 4 µg/mL | MIC ([7]; PMI UFR130, alone): 4 µg/mL | MIC ([7]; PMI UFR133, alone): 4 µg/mL | MIC ([7]; PMI UFR237, alone): 8 µg/mL | MIC ([7]; strain PMI UFR131, compound alone): 4 µg/mL | MIC [7, 11]: 8 µg/mL

O=C1N2CC(c3ncco3)=CC(C2)N1OC(F)(F)C(=O)[O-].[Li+] (centres unmarked) [AF2]
MIC ([1]; EAE 49469): 8 µg/mL | MIC ([1]; EAE 200261): 16 µg/mL | MIC ([1]; EAE UFR199): 16 µg/mL | MIC ([1]; EAE UFR201): 4 µg/mL | MIC ([1]; EAE UFR202): 32 µg/mL | MIC ([1]; EAE UFR207): 4 µg/mL | MIC ([1]; EAE UFR213): 16 µg/mL | MIC ([2]; CFR UFR10, alone): 4 µg/mL | MIC ([2]; CFR UFR11, alone): > 32 µg/mL | MIC ([2]; CFR UFR37, alone): 4 µg/mL | MIC ([2]; CFR UFR83, alone): > 32 µg/mL | MIC ([2]; CFR UFR146, alone): 32 µg/mL | MIC ([2]; CFR UFR248, alone): 8 µg/mL | MIC ([2]; strain CFR UFR147, compound alone): 8 µg/mL | MIC ([2]; strain CFR UFR148, compound alone): 8 µg/mL | MIC [2, 8]: 16 µg/mL | MIC ([2]; strain CFR UFR254, compound alone): 4 µg/mL | MIC ([3]; KOX UFR21): 16 µg/mL | MIC ([3]; KOX UFR173): 16 µg/mL | MIC ([3]; KOX UFR223): 8 µg/mL | MIC ([3]; KOX UFR224): 8 µg/mL | MIC ([4]; MMO 200321, alone): 32 µg/mL | MIC ([4]; MMO UFR144, alone): > 32 µg/mL | MIC ([4]; MMO UFR240, alone): > 32 µg/mL | MIC ([4]; MMO UFR241, alone): > 32 µg/mL | MIC ([4]; MMO UFR242, alone): > 32 µg/mL | MIC ([4]; MMO UFR243, alone): > 32 µg/mL | MIC ([4]; MMO UFR244, alone): > 32 µg/mL | MIC ([4]; MMO UFR245, alone): > 32 µg/mL | MIC ([4]; MMO UFR246, alone): > 32 µg/mL | MIC ([4]; MMO UFR247, alone): 32 µg/mL | MIC [4, 9]: > 32 µg/mL | MIC [5]: 8 µg/mL | MIC ([6]; PST UFR94, alone): 16 µg/mL | MIC ([6]; PST UFR95, alone): 32 µg/mL | MIC ([6]; PST UFR120, alone): 8 µg/mL | MIC ([6]; PST UFR121, alone): 4 µg/mL | MIC ([6]; PST UFR122, alone): 4 µg/mL | MIC ([6]; PST UFR123, alone): 8 µg/mL | MIC ([6]; PST UFR124, alone): 8 µg/mL | MIC ([6]; PST UFR125, alone): 8 µg/mL | MIC ([6]; PST UFR235, alone): 16 µg/mL | MIC [6, 10]: 32 µg/mL | MIC ([7]; PMI UFR128, alone): 8 µg/mL | MIC ([7]; PMI UFR129, alone): 4 µg/mL | MIC ([7]; PMI UFR130, alone): 4 µg/mL | MIC [7, 11]: 4 µg/mL
